Test results taken from patent US11807693B2 (priority 2014, dated 2023).
Like-named read-outs stand apart in the source and are kept apart here. Starred links: 1 amine or outer side, 2 acyl side, 3 side chain; linkers in the order of their positions; H or OH if unused. Non-standard residues stand in square brackets, D forms with d. Residues, ends and D or L forms follow the SMILES beside them. ξ: configuration not given here. *: point of attachment. Oic = O=C(O)[C@@H]1C[C@@H]2CCCC[C@@H]2N1; Phe(4-Cl) = N[C@@H](Cc1ccc(Cl)cc1)C(=O)O; γGlu = O=C(O)[C@H](CCC(=O)[*:2])N[*:1]; d(β3hF) = N[C@@H](CC(=O)O)Cc1ccccc1; NMeR = CN[C@@H](CCCNC(=N)N)C(=O)O; Palmitoyl = CCCCCCCCCCCCCCCC(=O)*; Tridecanoyl = CCCCCCCCCCCCC(=O)*; hArg = N=C(N)NCCCC[C@H](N)C(=O)O; Cha = N[C@@H](CC1CCCCC1)C(=O)O; αMeL = CC(C)C[C@](C)(N)C(=O)O; αMeP = C[C@@]1(C(=O)O)CCCN1; Pip = O=C(O)[C@@H]1CCCCN1; β3hS = N[C@@H](CO)CC(=O)O; Nle = CCCC[C@H](N)C(=O)O; ξβ3hV = CC(C)C(N)CC(=O)O; AEEA = NCCOCCOCC(=O)O; Aib = CC(C)(N)C(=O)O

What was measured:
[1] = target: T1, rat APJ receptor (Rattus norvegicus, UniProt Q9JHG3); experiment: [35S] GTPγS assay, rat APJ receptor; format: biochemical
T1 construct: expressed in transfected cells
T1 sequence (Q9JHG3 1-377): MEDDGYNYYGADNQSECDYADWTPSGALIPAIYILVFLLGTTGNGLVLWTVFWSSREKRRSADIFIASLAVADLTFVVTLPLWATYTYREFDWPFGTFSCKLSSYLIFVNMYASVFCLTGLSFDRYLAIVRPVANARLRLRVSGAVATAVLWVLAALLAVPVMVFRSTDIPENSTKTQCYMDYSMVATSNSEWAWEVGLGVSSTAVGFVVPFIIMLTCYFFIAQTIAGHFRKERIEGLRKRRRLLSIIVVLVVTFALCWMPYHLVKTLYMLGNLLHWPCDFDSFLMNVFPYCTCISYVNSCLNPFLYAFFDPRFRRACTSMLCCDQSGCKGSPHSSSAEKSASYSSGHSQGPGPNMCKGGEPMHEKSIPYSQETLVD
Protocol: The membranes were incubated with modified peptides in the assay buffer. […] Bound [^35S] GTPγS was separated from free radiolabel by filtration. The filter bound radioactivity was determined by liquid scintillation counting.

[2] = In vitro stability in rat plasma; format: in vitro ADME
Outline: (§1)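 Incubations: 5 μM apelin peptide, 37° C., 4 hr, in rat plasma, liver or kidney homogenate. Read-out via high resolution LC-MS after MeOH/internal standard precipitation and centrifugation.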

[3] = In vitro stability in rat liver homogenate; format: in vitro ADME; details: tissue homogenate
Outline: as §1

[4] = In vitro stability in rat kidney homogenate; format: in vitro ADME; details: rat, tissue homogenate
Outline: as §1

[5] = rat APJ receptor, read-out: EC50 Rat APJ Receptor
[6] = Table 16, read-out: EC50 Rat APJ Receptor

Row | EC50 [1, 5] [nM] | remaining at 4 h, 5 μM [2] [%] | remaining at 4 h, 5 μM [3] [%] | remaining at 4 h, 5 μM [4] [%] | EC50 [1, 6] [nM] | Compound
1 | 0.364 | > 90 | 15 | 1 |  | CCCCCCCCCCCCC(=O)N[C@@H](CCC(=O)NCCOCCOCC(=O)NCCOCCOCC(=O)N[C@@H](CCCCNC(=N)N)C(=O)N[C@@H](CCC(N)=O)C(=O)N[C@@H](CCCCNC(=N)N)C(=O)N1CCC[C@H]1C(=O)N(C)[C@@H](CCCNC(=N)N)C(=O)N[C@@H](CC1CCCCC1)C(=O)N[C@@H](CO)C(=O)N[C@@H](Cc1c[nH]cn1)C(=O)N[C@@H](CCCCN)C(=O)NCC(=O)N1[C@H](C(=O)N[C@@H](CCCC)C(=O)N2CCC[C@H]2C(=O)N[C@@H](Cc2ccc(Cl)cc2)C(=O)O)C[C@@H]2CCCC[C@@H]21)C(=O)O [compound 310] ({Tridecanoyl-γGlu-AEEA-AEEA}-[hArg]Q[hArg]P[NMeR][Cha]SHKG[Oic][Nle]P[Phe(4-Cl)]-OH)
2 |  | 62 | 3 | 2 | 0.116 | CCCCCCCCCCCCC(=O)N[C@@H](CCC(=O)NCCOCCOCC(=O)NCCOCCOCC(=O)N[C@@H](CCC(N)=O)C(=O)N[C@@H](CCCCNC(=N)N)C(=O)N1CCC[C@H]1C(=O)N(C)[C@@H](CCCNC(=N)N)C(=O)N[C@@](C)(CC(C)C)C(=O)N[C@@H](CO)C(=O)N[C@@H](Cc1c[nH]cn1)C(=O)N[C@@H](CCCCN)C(=O)NCC(=O)N1[C@H](C(=O)N[C@@H](CCCC)C(=O)N2CCC[C@H]2C(=O)N[C@@H](Cc2ccc(Cl)cc2)C(=O)O)C[C@@H]2CCCC[C@@H]21)C(=O)O [compound 359] ({Tridecanoyl-γGlu-AEEA-AEEA}-Q[hArg]P[NMeR][αMeL]SHKG[Oic][Nle]P[Phe(4-Cl)]-OH)
3 |  | 79 | 39 | 2.5 | 3.75 | CCCCCCCCCCCCC(=O)N[C@@H](CCC(=O)NCCOCCOCC(=O)NCCOCCOCC(=O)N[C@@H](CCC(N)=O)C(=O)N[C@@H](CCCCNC(=N)N)C(=O)N1CCC[C@H]1C(=O)N(C)[C@@H](CCCNC(=N)N)C(=O)N[C@@H](CC1CCCCC1)C(=O)N[C@@H](CO)C(=O)N[C@@H](Cc1c[nH]cn1)C(=O)N[C@@H](CCCCN)C(=O)NCC(=O)N1[C@H](C(=O)N[C@@H](CCCC)C(=O)N2CCC[C@H]2C(=O)N[C@@H](Cc2ccc(Cl)cc2)C(=O)O)C[C@@H]2CCCC[C@@H]21)C(=O)O [compound 362] ({Tridecanoyl-γGlu-AEEA-AEEA}-Q[hArg]P[NMeR][Cha]SHKG[Oic][Nle]P[Phe(4-Cl)]-OH)
4 | 1.5 | 86 | 8 | 2 |  | CCCCCCCCCCCCC(=O)N[C@@H](CCC(=O)NCCOCCOCC(=O)NCCOCCOCC(=O)NC(CC(=O)N[C@@H](CCCNC(=N)N)C(=O)N1CCC[C@H]1C(=O)N(C)[C@@H](CCCNC(=N)N)C(=O)NC(CC(=O)N[C@@H](CO)C(=O)N[C@@H](Cc1c[nH]cn1)C(=O)N[C@@H](CCCCN)C(=O)NCC(=O)N1[C@H](C(=O)N[C@@H](CCCC)C(=O)N2CCC[C@H]2C(=O)N[C@@H](Cc2ccc(Cl)cc2)C(=O)O)C[C@@H]2CCCC[C@@H]21)C(C)C)C(C)C)C(=O)O (stereo partly drawn) [compound 394] ({Tridecanoyl-γGlu-AEEA-AEEA}-[ξβ3hV]RP[NMeR][ξβ3hV]SHKG[Oic][Nle]P[Phe(4-Cl)]-OH)
5 |  | 87 | 2 | 1 | 16.5 | CCCCCCCCCCCCC(=O)N[C@@H](CCC(=O)NCCOCCOCC(=O)NCCOCCOCC(=O)N[C@@H](CCC(N)=O)C(=O)N(C)[C@@H](CCCNC(=N)N)C(=O)N[C@@](C)(CC(C)C)C(=O)N[C@@H](CO)C(=O)N[C@@H](Cc1c[nH]cn1)C(=O)N[C@@H](CCCCN)C(=O)NCC(=O)N1[C@H](C(=O)N[C@@H](CCCC)C(=O)N2CCC[C@H]2C(=O)N[C@@H](Cc2ccc(Cl)cc2)C(=O)O)C[C@@H]2CCCC[C@@H]21)C(=O)O [compound 397] ({Tridecanoyl-γGlu-AEEA-AEEA}-Q[NMeR][αMeL]SHKG[Oic][Nle]P[Phe(4-Cl)]-OH)
6 |  | 6 | 1 | 3 | 0.351 | CCCCCCCCCCCCC(=O)N[C@@H](CCC(=O)NCCOCCOCC(=O)NCCOCCOCC(=O)N[C@@H](CCC(N)=O)C(=O)N[C@@H](CCCNC(=N)N)C(=O)N1CCC[C@H]1C(=O)N(C)[C@@H](CCCNC(=N)N)C(=O)N[C@@H](CC(C)C)C(=O)N[C@@H](CO)C(=O)N[C@@H](Cc1c[nH]cn1)C(=O)N[C@@H](CCCCN)C(=O)NCC(=O)N1CCC[C@H]1C(=O)N[C@@H](CCCC)C(=O)N1CCC[C@@]1(C)C(=O)N[C@@H](Cc1ccc(Cl)cc1)C(=O)O)C(=O)O [compound 401]
7 |  | > 90 | 13 | < 1 | 3.14 | CCCCCCCCCCCCC(=O)N[C@@H](CCC(=O)NCCOCCOCC(=O)NCCOCCOCC(=O)N[C@H](CCC(N)=O)C(=O)N[C@@H](CCCNC(=N)N)C(=O)N1CCC[C@H]1C(=O)N(C)[C@@H](CCCNC(=N)N)C(=O)N[C@@H](CC1CCCCC1)C(=O)N[C@@H](CO)CC(=O)N[C@@H](Cc1c[nH]cn1)C(=O)N[C@@H](CCCCN)C(=O)NCC(=O)N1[C@H](C(=O)N[C@@H](CCCC)C(=O)NC(C)(C)C(=O)N[C@@H](Cc2ccc(Cl)cc2)C(=O)O)C[C@@H]2CCCC[C@@H]21)C(=O)O [compound 500] ({Tridecanoyl-γGlu-AEEA-AEEA}-[dQ]RP[NMeR][Cha][β3hS]HKG[Oic][Nle][Aib][Phe(4-Cl)]-OH)
8 | 5.94 | 2 | < 1 | 6 |  | CCCC[C@H](NC(=O)[C@@H]1CCCN1C(=O)CNC(=O)[C@H](CCCCN)NC(=O)[C@H](Cc1c[nH]cn1)NC(=O)[C@H](CO)NC(=O)[C@](C)(CC(C)C)NC(=O)[C@H](CCCCNC(=N)N)NC(=O)[C@@H]1CCCN1C(=O)[C@@H](CCCNC(=N)N)NC(=O)[C@H](CCC(N)=O)NC(=O)COCCOCCNC(=O)COCCOCCNC(=O)CC[C@H](NC(=O)CCCCC(=O)O)C(=O)O)C(=O)N1CCC[C@H]1C(=O)N[C@@H](Cc1ccc(Cl)cc1)C(=O)O [compound 515]
9 |  | > 90 | 2 | < 1 | 1.49 | CCCCCCCCCCCCC(=O)N[C@@H](CCC(=O)NCCOCCOCC(=O)NCCOCCOCC(=O)N[C@@H](CCCNC(=N)N)C(=O)N[C@@H](CCC(N)=O)C(=O)N[C@@H](CCCC)C(=O)N1CCC[C@H]1C(=O)N[C@@H](CCCCNC(=N)N)C(=O)N[C@@H](CC1CCCCC1)C(=O)N[C@@H](CO)C(=O)N[C@@H](C)C(=O)N[C@@H](CCCCN)C(=O)NCC(=O)N1CCCC[C@H]1C(=O)N[C@@H](CCCC)C(=O)N1CCC[C@H]1C(=O)N[C@@H](Cc1ccc(Cl)cc1)C(=O)O)C(=O)O [compound 564] ({Tridecanoyl-γGlu-AEEA-AEEA}-RQ[Nle]P[hArg][Cha]SAKG[Pip][Nle]P[Phe(4-Cl)]-OH)
10 | 19.8 | > 90 | 32 | 11 |  | CCCCCCCCCCCCCCCC(=O)N[C@@H](CCC(=O)NCCOCCOCC(=O)NCCOCCOCC(=O)N[C@H](CCC(N)=O)C(=O)N[C@@H](CCCNC(=N)N)C(=O)N1CCC[C@H]1C(=O)N(C)[C@@H](CCCNC(=N)N)C(=O)N[C@@H](CC1CCCCC1)C(=O)N[C@@H](CO)C(=O)N[C@@H](Cc1c[nH]cn1)C(=O)N[C@@H](CCCCN)C(=O)NCC(=O)N1[C@H](C(=O)N[C@@H](CCCC)C(=O)N2CCC[C@@]2(C)C(=O)N[C@@H](CC(=O)O)Cc2ccccc2)C[C@@H]2CCCC[C@@H]21)C(=O)O [compound 570] ({Palmitoyl-γGlu-AEEA-AEEA}-[dQ]RP[NMeR][Cha]SHKG[Oic][Nle][αMeP][d(β3hF)]-OH)
